From patent US4366143A, “Assay for the free portion of substances in biological fluids” (Amersham International Public Limited Company, priority 1979, dated 1982)

What was measured:
[1] = system: sex hormone binding globulin (SHBG); conditions: cited from earlier work
[2] = system: plasma proteins such as sex hormone binding globulin and albumin; conditions: cited from earlier work
[3] = target: T1, transcortin (Homo sapiens, UniProt P08185); assay: Binding of cortisol tracers to serum proteins / transcortin with and without ANS (Example 4); conditions: for % Tracer Bound to Serum Proteins (Corrected for Non-Specific Binding): charcoal extracted human serum
T1 construct: charcoal extracted human serum; from tissue; host or cells: human serum, charcoal extracted (unpurified)
T1 sequence (P08185 23-405): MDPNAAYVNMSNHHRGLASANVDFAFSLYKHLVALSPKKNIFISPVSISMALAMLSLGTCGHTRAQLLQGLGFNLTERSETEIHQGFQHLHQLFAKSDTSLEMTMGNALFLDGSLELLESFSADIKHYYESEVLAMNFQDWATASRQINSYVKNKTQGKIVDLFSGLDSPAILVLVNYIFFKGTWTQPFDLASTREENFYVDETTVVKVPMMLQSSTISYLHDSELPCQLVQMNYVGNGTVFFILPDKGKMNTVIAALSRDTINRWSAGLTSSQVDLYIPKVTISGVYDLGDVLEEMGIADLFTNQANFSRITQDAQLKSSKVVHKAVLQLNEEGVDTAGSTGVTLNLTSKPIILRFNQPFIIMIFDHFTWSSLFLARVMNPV
Method: The protocol was as follows:
B. 200 μl buffer (containing either 0 or 600 μg of 8-anilinonaphthalene sulphonic acid (ANS) as a cortisol binding site blocking agent).
A mixture of A and B was incubated at 37° C. for one hour. […] The reaction tubes were mixed for one hour at room temperature. A 0.5 ml aliquot of the supernatant was then removed for counting.

[4] = system: solid phase T4 specific antibody; assay: Binding of labelled T4 derivatives to solid phase T4 antibody with and without thiomersal (Example 7); design: species or system sheep; conditions: 125I-labelled T4 derivative
Method: (§1) The dominant binding protein for T4 in serum is TBG, and the binding site for T4 on this protein may be blocked by adding an appropriate concentration of thiomersalate to the buffer.
(§2) The labelled T4 derivative was dissolved in 0.01 molar phosphate, pH 7.4 containing 0.9% sodium chloride and 0.1% gelatin to give a radioactive concentration of approximately 0.05 microcuries per milliliter. In the part of the experiment where the blocking agent was used, this buffer contained 1.8% thiomersal.
(§3) A solid phase T4 specific antibody was used that consisted of a pre-precipitated double antibody complex made by reacting sheep anti-T4 serum and donkey anti-rabbit gamma globulin serum in the abovementioned phosphate buffer. A concentration of this solid phase T4 antibody suspension was chosen that bound approximately 50% of ^125 I-T4 tracer in the presence of blocking agent under the experimental conditions used.
(§4) The binding of the labelled T4 derivatives was tested as follows:
(§5) 50 μl human serum (depleted of T4 by resin extraction)
(§6) 500 μl labelled T4 derivative (with or without blocking agent)
(§7) 1.0 ml solid phase T4 antibody suspension
(§8) Tubes were incubated for 2 hours at 37° C. and then centrifuged to settle the solid phase antibody. The supernatant solution was decanted and the radioactivity in the solid phase measured.

[5] = system: TBG; conditions: cited from earlier work
[6] = system: antibodies; conditions: cited from earlier work
[7] = target: T2, TBG (Homo sapiens, UniProt P05543); assay: Binding of T4 derivatives to TBG, from antibody binding in presence and absence of blocking agent (Example 7)
T2 sequence (P05543 21-415): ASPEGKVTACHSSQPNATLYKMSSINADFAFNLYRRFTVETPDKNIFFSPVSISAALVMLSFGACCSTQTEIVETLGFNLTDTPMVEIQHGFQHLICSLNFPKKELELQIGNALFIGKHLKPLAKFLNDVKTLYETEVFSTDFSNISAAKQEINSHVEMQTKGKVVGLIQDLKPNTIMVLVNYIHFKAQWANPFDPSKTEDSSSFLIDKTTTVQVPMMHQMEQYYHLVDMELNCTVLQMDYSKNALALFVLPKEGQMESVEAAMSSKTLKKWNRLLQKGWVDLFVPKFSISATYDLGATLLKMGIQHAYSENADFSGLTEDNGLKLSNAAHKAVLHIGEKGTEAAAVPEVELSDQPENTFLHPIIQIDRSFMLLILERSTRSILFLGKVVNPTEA
Method: as §1, §2, §3, §4, §5, §6, §7, §8
The right-hand column of the above table sets out the ratio of the figures in the two other columns. As a rule of thumb, it may be said that this ratio should be at least 0.6, preferably at least 0.9 for the compound tested to be worth considering for use in the free T4 assay. It should be noted, however, that these figures are valid only for the free T4 assay and not necessarily for other free ligand assays.

[8] = system: TBPA; conditions: cited from earlier work
[9] = system: TBPA; conditions: blood stream of human beings; cited from earlier work
[10] = target: T2, TBG; conditions: blood stream of human beings; cited from earlier work
[11] = system: Albumin; conditions: blood stream of human beings; cited from earlier work
[12] = system: thyroxine binding globulin (TBG), thyroxine binding pre-albumin (TBPA) and albumin (Alb); conditions: blood serum or plasma; cited from earlier work
[13] = system: T4-binding reagent (pre-precipitated double antibody complex, sheep anti-T4 serum); assay: Free T4 assay using N-acetyl-thyroxine-dimethylamide, tracer bound to T4-binding reagent (Example 6)
Text: The labelled derivative of the ligand was N-acetyl-thyroxine-dimethylamide,labelled by iodine-125 exchange using sodium iodide I^125 and chloromine-T. The specific activity was 1000 millicuries per milligram. The tracer concentration was 0.5 μCi/ml.
The specific binder was a pre-precipitated double antibody complex made from sheep anti-T4 serum and donkey anti-rabbit γ globulin serum. This reagent is referred to as the T4-binding reagent.
The buffer was 0.01 molar phosphate, pH 7.4, containing 9.0 g/l NaCl, 1.0 g/l NaN3 and 1.0 g/l gelatin. 50 micro-liters of a serum sample or standard was mixed with 500 micro-liters of the tracer solution and 1000 micro-liters of the T4-binding reagent. The mixture was incubated for 2 hours at 37° C., centrifuged, decanted, and drained. The radioactivity of the precipitate was measured.

[14] = system: sheep-anti-T4 serum; assay: Free T4 assay, tracer N-acetyl-thyroxine-methyl ester bound to sheep anti-T4 serum (standard curve, Example 1); type: binding
Text: The labelled derivative of the ligand was N-acetyl-thyroxine-methyl ester, labelled by iodine-125 exchange using sodium iodide-I^125 and chloramine-T. The specific activity was 1500 millicuries per milligram. The tractor concentration was 90 picomolar.
The specific binder was a solution of sheep-anti-T4 serum raised against thyroxine methyl ester coupled to bovine serum albumin by carbodiimide. The final dilution was 1/60,000 in buffer.
The buffer contained 13.6 g/l KH2 PO4, 9.0 g/l NaCl, 0.07 g/l NaN3 and 1.0 g/l gelatin.
50 micro-liters of a serum sample was mixed with 200 micro-liters of the radioactive ligand derivative solution and 200 micro-liters of specific binder solution and the mixture incubated at room temperature for one hour. Then 1 milli-liter of polyethyleneglycol solution (20%) was added, and the reaction mixture centrifuged. The supernatant liquid was decanted and the radioactivity of the precipitate was measured.

[15] = system: transcortin and albumin; conditions: cited from earlier work

Row | SMILES | % of T4 derivative bound to antibody ([4]; Thiomersal absent) | % of T4 derivative bound to antibody ([4]; Thiomersal present) | Ratio (% bound to antibody, thiomersal absent / present) [7] | binding to TBG (in words) [7] | suitability of TBG binding reduction for free-T4 assay (in words) [7] | also measured
1 | C[C@]12CC[C@H]3[C@@H](CCC4=CC(=O)CC[C@@]43C)[C@@H]1CC[C@@H]2O (stereo in doubt) [testosterone] | – | – | – | – | – | binding to SHBG (in words) [1]: bind strongly; proportion bound to plasma proteins [2]: > 90%
2 | C[C@]12CCC(=O)C=C1CC[C@@H]1[C@@H]2[C@@H](O)C[C@@]2(C)[C@H]1CC[C@]2(O)C(=O)CO [Cortisol (H^3), Cortisol, reference compound] | – | – | – | – | – | binding to transcortin (in words) [3]: binds strongly to transcortin; % Tracer Bound to Serum Proteins (Corrected for Non-Specific Binding) ([3]; ANS 0 μg/tube): 28%; % Tracer Bound to Serum Proteins (Corrected for Non-Specific Binding) ([3]; ANS 600 μg/tube): 3.5%; displacement from transcortin by ANS blocking agent (in words) ([3]; high concentrations of ANS): displaced at high concentrations of the ANS blocking agent
3 | N[C@H](Cc1cc(I)c(Oc2cc(I)c(O)c(I)c2)c(I)c1)C(=O)O [D-T4, D-Thyroxine] | 24% | 50% | 0.48 | bound less by TBG | not reduced enough for consideration as a T4 derivative for a free-T4 assay | binding to TBG relative to L-Thyroxine / T4 (in words) [5]: substantially less than that of L-Thyroxine; binding to antibodies relative to L-Thyroxine / T4 (in words) [6]: binds as strongly to antibodies as does the naturally occurring L-Thyroxine; binding to TBPA relative to L-Thyroxine / T4 (in words) [8]: substantially less than that of L-Thyroxine
4 | COC(=O)[C@@H](Cc1cc(I)c(Oc2cc(I)c(O)c(I)c2)c(I)c1)NC(C)=O [D-T4/A, N-Acetyl D-T4-methylester] | 38% | 38% | 1.00 | appears to decrease this binding to TBG even further | sufficiently reduced binding to TBG for use in the free-T4 assay | –
5 | N[C@@H](Cc1cc(I)c(Oc2cc(I)c(O)c(I)c2)c(I)c1)C(=O)O [L-T4, thyroxine, reference compound] | 12% | 50% | 0.24 | bound appreciably by TBG | – | percentage of T4 bound to TBPA [9]: 20-25%; percentage of T4 bound to TBG [10]: approximately 70%; percentage of T4 bound to Albumin [11]: 5-10%; bound to naturally occurring binding proteins [12]: approximately 99.98%
6 | COC(=O)[C@H](Cc1cc(I)c(Oc2cc(I)c(O)c(I)c2)c(I)c1)NC(C)=O [L-T4/A, N-Acetyl-L-T4-methylester] | 36% | 40% | 0.90 | appears to bind much less strongly to TBG than does L-T4 | sufficiently reduced binding to TBG for use in the free-T4 assay | –
7 | CC(=O)N[C@@H](Cc1cc(I)c(Oc2cc(I)c(O)c(I)c2)c(I)c1)C(=O)O [L-T4/F, N-Acetyl-L-T4] | 22% | 52% | 0.42 | bound to TBG to about the same extent as D-T4 | not reduced enough for consideration as a T4 derivative for a free-T4 assay | –
8 | CCNC(=O)[C@H](Cc1cc(I)c(Oc2cc(I)c(O)c(I)c2)c(I)c1)NC(C)=O [L-T4/L, N-Acetyl-L-T4-monoethylamide] | 21% | 60% | 0.35 | bound to TBG to about the same extent as D-T4 | not reduced enough for consideration as a T4 derivative for a free-T4 assay | –
9 | CC(=O)N[C@@H](Cc1cc(I)c(Oc2cc(I)c(O)c(I)c2)c(I)c1)C(=O)N(C)C [L-T4/M, N-Acetyl-L-T4-dimethylamide] | 50% | 50% | 1.00 | appears to have minimal binding to TBG | sufficiently reduced binding to TBG for use in the free-T4 assay | –
10 | CC(=O)N[C@@H](Cc1cc(I)c(Oc2cc(I)c(O)c(I)c2)c(I)c1)C(=O)N(C)C [N-acetyl-thyroxine-dimethylamide] | – | – | – | – | – | % Radioactivity in Solid Phase ([13]; Free T4 0 ng/dl, mean of duplicate tubes): 38%; % Radioactivity in Solid Phase ([13]; Free T4 0.18 ng/dl, mean of duplicate tubes): 22%; % Radioactivity in Solid Phase ([13]; Free T4 0.9 ng/dl, mean of duplicate tubes): 11%; % Radioactivity in Solid Phase ([13]; Free T4 3.0 ng/dl, mean of duplicate tubes): 6.0%; % Radioactivity in Solid Phase ([13]; Free T4 5.7 ng/dl, mean of duplicate tubes): 3.6%; % Radioactivity in Solid Phase ([13]; non-pregnant euthyroid control): 7.1%; % Radioactivity in Solid Phase ([13]; pregnant euthyroid control): 6.8%
11 | COC(=O)[C@H](Cc1cc(I)c(Oc2cc(I)c(O)c(I)c2)c(I)c1)NC(C)=O [N-acetyl-thyroxine-methyl ester] | – | – | – | – | – | % Radioactivity in Solid Phase ([14]; Free T4 0.0 ng/dl): 58%; % Radioactivity in Solid Phase ([14]; Free T4 0.2 ng/dl): 55%; % Radioactivity in Solid Phase ([14]; Free T4 1.0 ng/dl): 47%; % Radioactivity in Solid Phase ([14]; Free T4 3.0 ng/dl): 34%; % Radioactivity in Solid Phase ([14]; Free T4 5.8 ng/dl): 22%
12 | C[C@]12CCC(=O)C=C1CC[C@@H]1[C@@H]2[C@@H](O)C[C@@]2(C)[C@H]1CC[C@]2(O)C(=O)CO [cortisol] | – | – | – | – | – | cortisol in free form in blood plasma [15]: ~8%
13 | C[C@]12CC[C@@H]3c4ccc(O)cc4CC[C@H]3[C@@H]1CC[C@@H]2O [oestradiol] | – | – | – | – | – | binding to SHBG (in words) [1]: bind strongly
14 | CC(=O)[C@H]1CC[C@H]2[C@@H]3CCC4=CC(=O)CC[C@]4(C)[C@H]3CC[C@]12C [progesterone] | – | – | – | – | – | proportion bound to plasma proteins [2]: > 90%
